Key:
Experiment in all cases: relative viability (nuclei count vs DMSO), 5 days (fraction); higher = more cells survive
Vemurafenib + Crizotinib = compound: CCCS(=O)(=O)Nc1ccc(F)c(C(=O)c2c[nH]c3ncc(-c4ccc(Cl)cc4)cc23)c1F [Vemurafenib] + C[C@@H](Oc1cc(-c2cnn(C3CCNCC3)c2)cnc1N)c1c(Cl)ccc(F)c1Cl [Crizotinib] (partner 1 µM)
Outline: (§1)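 Dosing by pin tool came one day after lung cancer cell lines were seeded in 1536-well plates, using either one drug or a fixed anchor-drug dose plus five library-drug doses (not always all listed) in √10 steps. After 5 days, nuclei were counted on 4× images. Relative viability is treated-well nuclei count divided by vehicle-well nuclei count, and values are medians of duplicate plates.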

OSI-027 + Bortezomib = compound: COc1cccc2cc(-c3nc([C@H]4CC[C@H](C(=O)O)CC4)n4ncnc(N)c34)[nH]c12 [OSI-027] + CC(C)C[C@H](NC(=O)[C@H](Cc1ccccc1)NC(=O)c1cnccn1)B(O)O [Bortezomib] (partner 0.002 µM)
Outline: as §1

OSI-027 + Tozasertib = compound: COc1cccc2cc(-c3nc([C@H]4CC[C@H](C(=O)O)CC4)n4ncnc(N)c34)[nH]c12 [OSI-027] + Cc1cc(Nc2cc(N3CCN(C)CC3)nc(Sc3ccc(NC(=O)C4CC4)cc3)n2)n[nH]1 [Tozasertib] (partner 0.1 µM)
Outline: as §1

OSI-027 + Pemetrexed = compound: COc1cccc2cc(-c3nc([C@H]4CC[C@H](C(=O)O)CC4)n4ncnc(N)c34)[nH]c12 [OSI-027] + Nc1nc2[nH]cc(CCc3ccc(C(=O)N[C@@H](CCC(=O)O)C(=O)O)cc3)c2c(=O)[nH]1 [Pemetrexed] (partner 0.2 µM)
Outline: as §1

| Cell Line | relative viability (Vemurafenib + Crizotinib; first compound 0.03162 µM) | relative viability (Vemurafenib + Crizotinib; first compound 0.1 µM) | relative viability (Vemurafenib + Crizotinib; first compound 0.3162 µM) | relative viability (Vemurafenib + Crizotinib; first compound 1 µM) | relative viability (OSI-027 + Bortezomib; first compound 0.01 µM) | relative viability (OSI-027 + Bortezomib; first compound 0.03162 µM) | relative viability (OSI-027 + Bortezomib; first compound 0.1 µM) | relative viability (OSI-027 + Bortezomib; first compound 0.3162 µM) | relative viability (OSI-027 + Bortezomib; first compound 1 µM) | relative viability (OSI-027 + Tozasertib; first compound 0.01 µM) | relative viability (OSI-027 + Tozasertib; first compound 0.03162 µM) | relative viability (OSI-027 + Tozasertib; first compound 0.1 µM) | relative viability (OSI-027 + Tozasertib; first compound 0.3162 µM) | relative viability (OSI-027 + Tozasertib; first compound 1 µM) | relative viability (OSI-027 + Pemetrexed; first compound 0.01 µM) | relative viability (OSI-027 + Pemetrexed; first compound 0.03162 µM) | relative viability (OSI-027 + Pemetrexed; first compound 0.1 µM) | relative viability (OSI-027 + Pemetrexed; first compound 0.3162 µM) | relative viability (OSI-027 + Pemetrexed; first compound 1 µM) |
| --- | --- | --- | --- | --- | --- | --- | --- | --- | --- | --- | --- | --- | --- | --- | --- | --- | --- | --- | --- |
| NCI-H1437 | 0.801 | 0.937 | 0.895 | 0.906 | 0.43 | 0.409 | 0.538 | 0.487 | 0.258 | 0.418 | 0.379 | 0.456 | 0.413 | 0.318 | 0.357 | 0.348 | 0.26 | 0.259 | 0.24 |
| NCI-H647 | 1.03 | 0.963 | 0.884 | 0.713 | 0.992 | 0.981 | 1 | 0.884 | 0.432 | 0.401 | 0.291 | 0.292 | 0.433 | 0.147 | 0.159 | 0.173 | 0.187 | 0.157 | 0.211 |
| HCC-78 | 0.315 | 0.277 | 0.376 | 0.333 | 0.611 | 0.428 | 0.454 | 0.344 | 0.35 | 0.506 | 0.374 | 0.435 | 0.334 | 0.241 | 0.954 | 0.918 | 0.911 | 0.913 | 0.887 |

Reference: the supplement of paper PMC10307832
